Common to all, as to experiment: ATP hydrolysis, [γ-32P]-ATP TLC, Michaelis-Menten fit
Format in all cases: biochemical
Common to all, as to conditions: M13 ssDNA 1.5 μM nt, 10 nM Pif1, 5 mM MgCl2, 60 mM KCl, pH 7.5, 30 °C, no RPA; labelled compound as tracer

The target of test [1] is T1, GFP-Pif1 (Saccharomyces cerevisiae, UniProt P07271, E724A).
T1 construct: N-terminal superfolder GFP fusion of nuclear isoform residues 40-859, pRSF-Duet-1, E. coli Rosetta2(DE3), Ni-NTA purified
T1 sequence (P07271 40-859 E724A): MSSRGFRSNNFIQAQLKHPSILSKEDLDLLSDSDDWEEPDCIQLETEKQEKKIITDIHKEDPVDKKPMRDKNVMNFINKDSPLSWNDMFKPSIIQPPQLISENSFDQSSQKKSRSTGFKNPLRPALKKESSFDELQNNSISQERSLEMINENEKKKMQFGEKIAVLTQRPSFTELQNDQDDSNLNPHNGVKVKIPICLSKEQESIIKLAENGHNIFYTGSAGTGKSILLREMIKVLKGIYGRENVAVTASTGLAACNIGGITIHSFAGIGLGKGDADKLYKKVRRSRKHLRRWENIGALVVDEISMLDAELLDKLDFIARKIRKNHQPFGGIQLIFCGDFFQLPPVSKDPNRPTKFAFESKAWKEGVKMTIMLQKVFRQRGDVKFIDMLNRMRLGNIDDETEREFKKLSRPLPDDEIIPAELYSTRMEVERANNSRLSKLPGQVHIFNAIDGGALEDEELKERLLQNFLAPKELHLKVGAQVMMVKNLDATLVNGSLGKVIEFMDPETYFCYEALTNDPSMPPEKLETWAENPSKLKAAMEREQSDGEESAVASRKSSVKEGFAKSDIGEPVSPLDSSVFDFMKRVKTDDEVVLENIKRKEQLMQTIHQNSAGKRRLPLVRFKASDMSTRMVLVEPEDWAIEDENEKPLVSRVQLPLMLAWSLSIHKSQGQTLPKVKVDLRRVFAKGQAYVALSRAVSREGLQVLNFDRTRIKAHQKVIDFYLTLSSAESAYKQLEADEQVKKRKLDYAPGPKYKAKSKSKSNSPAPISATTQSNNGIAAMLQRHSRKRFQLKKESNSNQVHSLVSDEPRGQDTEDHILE
The method, then: (§1) ATP hydrolysis, [γ-32P]-ATP TLC, Michaelis-Menten fit on GFP-Pif1 | each of the mutant proteins was tested for ATPase activity

Test [2] concerns the target T2, GFP-Pif1 (Saccharomyces cerevisiae, UniProt P07271, L310A).
T2 construct: N-terminal superfolder GFP fusion of nuclear isoform residues 40-859, pRSF-Duet-1, E. coli Rosetta2(DE3), Ni-NTA purified
T2 sequence (P07271 40-859 L310A): T1 sequence (P07271 40-859 E724A) with L271A, A685E
The method, then:
as §1

Test [3] addresses T3, GFP-Pif1 (Saccharomyces cerevisiae, UniProt P07271, K387A).
T3 construct: N-terminal superfolder GFP fusion of nuclear isoform residues 40-859, pRSF-Duet-1, E. coli Rosetta2(DE3), Ni-NTA purified
T3 sequence (P07271 40-859 K387A): T1 sequence (P07271 40-859 E724A) with K348A, A685E

We go through one molecule from PMC10279920, “Single-molecule visualization of Pif1 helicase translocation on single-stranded DNA” (The Journal of Biological Chemistry, 2023).

The structures appear in SMILES notation. Changes are numbered by the printed parent chain.

As for `Nc1ncnc2c1ncn2[C@@H]1O[C@H](COP(=O)(O)OP(=O)(O)OP(=O)(O)O)[C@@H](O)[C@H]1O` [ATP], the values for the Km at GFP-Pif1 [1], on GFP-Pif1 [2] and at GFP-Pif1 [3] were 1470 ± 1370 µM, 650 ± 630 µM and 540 ± 290 µM, respectively.

Usually Km stands for the concentration of substrate that gives half-maximal velocity.
